Like-named read-outs stand apart in the source and are kept apart here.
Columns and labels:
Format in all cases: cell-based
human Nav1.1 = target: T1, human Nav1.1 (Homo sapiens, UniProt P35498); test: Nav1.1 use-dependent block, whole-cell voltage clamp, 10 Hz pulse train; conditions: Chantest conditions, read-out: NAV1.1 UDB-10 HZ % Inhibition
T1 construct: expressed in transfected cells; host or cells: HEK293, transient transfection (Qiagen Superfect), α1:β1:β2 at 10:1:1

hNav1.2 sodium channel = target: T2, hNav1.2 sodium channel (Homo sapiens, UniProt Q99250); test: Nav1.2 use-dependent block, whole-cell voltage clamp, 10 Hz pulse train; conditions: Chantest conditions, read-out: NAV1.2 UDB-10 HZ % Inhibition
T2 construct: expressed in transfected cells
Description: Wild-type (WT) cDNA stably transfected in Chinese hamster ovary (CHO) cells is used to record INa. Unless otherwise noted, all reagents are purchased from Sigma-Aldrich (St Louis, Mo., U.S.A.).
Whole-cell voltage-clamp recordings are used to measure the biophysical properties of WT. Briefly, the pipette solution consists of (in mM) 110 CsF, 10 NaF, 20 CsCl, 2 EGTA, 10 HEPES, with a pH of 7.35 and osmolarity of 300 mOsmol/kg. The bath (control) solution contains in (mM): 145 NaCl, 4 KCl, 1.8 CaCl2, 1 MgCl2, 10 dextrose, 10 HEPES, with a pH of 7.35 and osmolarity of 310 mOsmol/kg. Cells are allowed to stabilize for 10 min after establishment of the whole-cell configuration before current is measured. Series resistance is compensated 90% to assure that the command potential is reached within microseconds with a voltage error<2 mV. Leak currents are subtracted by using an online P/4 procedure and all currents are low-pass Bessel filtered at 5 kHz and digitized at 50 kHz.
Tonic block of peak current is measured using a step to −10 mV (20 ms) from a holding potential of −120 mV (0.2 Hz). Use-dependent block of peak current is measured during pulse number 300 of a pulse train (−10 mV, 5 ms, 300 pulses, 10 Hz or 25 Hz) from a holding potential of −120 mV. Currents are then normalized to the peak current recorded in response to the first pulse in each frequency train. For tonic block studies, peak current is evaluated in response to a 20 ms depolarization to −10 mV (0.2 Hz). Two sequential pulse train stimulations are averaged to obtain mean current traces for each recording condition, which are then used for offline subtraction and analysis.
A stock solution of 10 mM compound of Formula I is prepared in 0.1 M HCl or DMSO. A fresh dilution of the compound of Formula I in the bath solution is prepared every experimental day and the pH is readjusted to 7.35 as necessary. The final DMSO concentration was kept at 0.1% in all solutions. Direct application of the perfusion solution to the clamped cell is achieved using the Perfusion Pencil system (Automate, Berkeley, Calif.). Direct cell perfusion is driven by gravity at a flow rate of 350 μL/min using a 250 micron tip. This system sequesters the clamped cell within a perfusion stream and enables complete solution exchange within 1 second. The clamped cell is perfused continuously starting immediately after establishing the whole-cell configuration. Control currents are measured during control solution perfusion.
Solutions are perfused for three minutes prior to current recordings to allow equilibrium (tonic) drug block. Tonic block of peak currents is measured from this steady-state condition. Three sequential current traces are averaged to obtain a mean current for each recording. The mean current traces are utilized for offline analysis.

[1] = target: wild-type human cardiac sodium channel, hNav1.5 (Homo sapiens, UniProt Q14524); test: Late INa screening assay (QPatch whole cell patch clamp, tefluthrin-enhanced late sodium current); conditions: HEK293 hNav1.5, late INa activated with 10 μM Tefluthrin
How it was run: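 Automated whole-cell patch clamp of HEK293 cells stably expressing hNav1.5 (no β subunits), 23-25 °C. Late current enhanced by 10 μM tefluthrin, 250 ms steps to −20 mV from −120 mV at 0.1 Hz, measured 225-250 ms. Compounds typically 1 μM, three additions over 7-8 min; % block normalised to 0 Na baseline.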

hNav1.5 Peak INa = hNav1.5 Peak INa (Homo sapiens, UniProt Q14524); test: Peak INa screening assay (tonic block and use-dependent block)
Protocol: The assay uses an HEK293 (human embryonic kidney) cell line heterologously expressing the wild-type human cardiac sodium channel, hNav1.5, purchased from Millipore (Billerica, Mass.). No beta subunits were coexpressed with the Na channel alpha subunit. Cells are maintained with standard tissue culture procedures and stable channel expression is maintained with 400 μg/mL Geneticin in the culture medium. […] Experiments are carried out at 23-25° C. […] Currents through open sodium channels are automatically recorded and stored in the Sophion Bioscience Oracle database (Sophion Bioscience, Copenhagen, Denmark). Analysis is performed using QPatch Assay and database software and data are compiled in Excel. Compound stocks are routinely made by the Gilead Sample Bank in plastic vials to 10 mM in dimethyl sulfoxide (DMSO). […] Stocks are sonicated as necessary. […] Compounds are diluted in extracellular solution to 1 μM in glass vials and then transferred to glass well plates before robotic addition to the cells. […] Good separation between the concentrations of test compound to reduce late and peak INa is beneficial to enable separation of the desired effect to reduce late INa-induced electrical and mechanical dysfunction from the undesired effect to reduce peak INa, which can lead to slowing or block of conduction of electrical excitation in the heart. It is contemplated that the compounds of Formula I avoid significant block of peak INa. […] Analysis of peak INa generally requires correction for rundown before determining the % block of peak current by the tested compound. […] Use-dependent block refers to the accumulation of block with increased frequency of channel activation. […] It is therefore expected that reduction of peak INa by compounds of this disclosure will be greater at high heart rates, such as those during tachyarrhythmias, than at normal heart rates. […] The intracellular solution used for the Peak INa assay is the same as outlined for the Late INa assay (see above). […] After establishing the whole cell recording configuration, channels were stimulated to open with low frequency stimulation (0.1 Hz) for 7 minutes so that the recording can be monitored and the extent to which the recording has stabilized can be assessed. […] Both TB and UDB were analyzed by incorporating rundown correction for the peak INa and UDB as calculated by compensating for the small use-dependent effect of the stimulation protocol on peak INa in the absence of compound.

T2 sequence (Q99250 whole entry): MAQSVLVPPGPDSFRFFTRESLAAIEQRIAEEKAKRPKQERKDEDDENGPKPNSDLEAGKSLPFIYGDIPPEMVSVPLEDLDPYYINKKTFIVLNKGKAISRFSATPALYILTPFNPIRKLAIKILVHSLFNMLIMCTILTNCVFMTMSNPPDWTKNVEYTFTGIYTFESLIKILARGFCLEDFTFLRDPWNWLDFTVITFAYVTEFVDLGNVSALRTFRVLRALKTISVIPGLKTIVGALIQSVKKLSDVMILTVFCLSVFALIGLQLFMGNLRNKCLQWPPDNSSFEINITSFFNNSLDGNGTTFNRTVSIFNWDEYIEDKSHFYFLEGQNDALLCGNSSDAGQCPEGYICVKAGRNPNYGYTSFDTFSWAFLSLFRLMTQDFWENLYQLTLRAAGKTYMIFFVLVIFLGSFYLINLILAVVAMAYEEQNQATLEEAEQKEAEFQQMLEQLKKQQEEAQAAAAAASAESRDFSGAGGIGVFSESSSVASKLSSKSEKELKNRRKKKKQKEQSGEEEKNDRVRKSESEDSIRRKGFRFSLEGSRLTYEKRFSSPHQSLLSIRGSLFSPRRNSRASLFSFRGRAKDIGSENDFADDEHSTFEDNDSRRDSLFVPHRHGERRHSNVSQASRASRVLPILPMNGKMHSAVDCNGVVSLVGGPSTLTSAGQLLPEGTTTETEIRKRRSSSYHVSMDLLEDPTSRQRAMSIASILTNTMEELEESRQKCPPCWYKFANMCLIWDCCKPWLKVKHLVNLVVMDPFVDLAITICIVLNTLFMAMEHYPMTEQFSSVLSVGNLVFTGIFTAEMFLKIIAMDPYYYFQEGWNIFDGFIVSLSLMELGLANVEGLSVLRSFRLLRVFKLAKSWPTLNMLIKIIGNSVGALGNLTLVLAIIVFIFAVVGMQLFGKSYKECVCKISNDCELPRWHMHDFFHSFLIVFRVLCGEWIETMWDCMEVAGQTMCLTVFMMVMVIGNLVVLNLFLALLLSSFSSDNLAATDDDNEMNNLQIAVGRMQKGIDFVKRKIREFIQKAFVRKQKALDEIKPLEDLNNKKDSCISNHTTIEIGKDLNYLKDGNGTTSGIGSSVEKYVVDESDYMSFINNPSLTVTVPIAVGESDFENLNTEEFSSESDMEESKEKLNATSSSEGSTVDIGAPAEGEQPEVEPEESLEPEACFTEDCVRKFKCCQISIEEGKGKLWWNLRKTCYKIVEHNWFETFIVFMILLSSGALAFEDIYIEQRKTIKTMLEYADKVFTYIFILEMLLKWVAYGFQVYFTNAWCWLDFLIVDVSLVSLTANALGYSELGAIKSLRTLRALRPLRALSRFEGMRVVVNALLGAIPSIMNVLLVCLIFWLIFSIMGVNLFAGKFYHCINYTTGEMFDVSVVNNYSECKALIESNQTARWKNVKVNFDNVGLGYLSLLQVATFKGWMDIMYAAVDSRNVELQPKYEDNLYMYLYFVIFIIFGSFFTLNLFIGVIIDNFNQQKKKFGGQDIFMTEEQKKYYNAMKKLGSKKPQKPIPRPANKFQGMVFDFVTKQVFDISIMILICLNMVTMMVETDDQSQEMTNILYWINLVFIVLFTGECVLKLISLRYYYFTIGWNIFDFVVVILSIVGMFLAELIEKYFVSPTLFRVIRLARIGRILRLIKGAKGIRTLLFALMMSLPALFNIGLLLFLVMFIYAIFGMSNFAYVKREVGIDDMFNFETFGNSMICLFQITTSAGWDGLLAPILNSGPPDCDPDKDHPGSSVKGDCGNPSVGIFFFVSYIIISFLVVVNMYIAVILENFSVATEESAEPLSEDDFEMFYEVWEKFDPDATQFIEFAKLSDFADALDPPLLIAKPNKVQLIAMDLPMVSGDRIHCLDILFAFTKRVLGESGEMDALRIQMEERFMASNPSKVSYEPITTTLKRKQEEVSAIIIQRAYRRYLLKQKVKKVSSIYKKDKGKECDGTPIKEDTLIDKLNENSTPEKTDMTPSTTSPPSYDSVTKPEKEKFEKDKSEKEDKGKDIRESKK
wild-type human cardiac sodium channel, hNav1.5, sequence (Q14524 whole entry): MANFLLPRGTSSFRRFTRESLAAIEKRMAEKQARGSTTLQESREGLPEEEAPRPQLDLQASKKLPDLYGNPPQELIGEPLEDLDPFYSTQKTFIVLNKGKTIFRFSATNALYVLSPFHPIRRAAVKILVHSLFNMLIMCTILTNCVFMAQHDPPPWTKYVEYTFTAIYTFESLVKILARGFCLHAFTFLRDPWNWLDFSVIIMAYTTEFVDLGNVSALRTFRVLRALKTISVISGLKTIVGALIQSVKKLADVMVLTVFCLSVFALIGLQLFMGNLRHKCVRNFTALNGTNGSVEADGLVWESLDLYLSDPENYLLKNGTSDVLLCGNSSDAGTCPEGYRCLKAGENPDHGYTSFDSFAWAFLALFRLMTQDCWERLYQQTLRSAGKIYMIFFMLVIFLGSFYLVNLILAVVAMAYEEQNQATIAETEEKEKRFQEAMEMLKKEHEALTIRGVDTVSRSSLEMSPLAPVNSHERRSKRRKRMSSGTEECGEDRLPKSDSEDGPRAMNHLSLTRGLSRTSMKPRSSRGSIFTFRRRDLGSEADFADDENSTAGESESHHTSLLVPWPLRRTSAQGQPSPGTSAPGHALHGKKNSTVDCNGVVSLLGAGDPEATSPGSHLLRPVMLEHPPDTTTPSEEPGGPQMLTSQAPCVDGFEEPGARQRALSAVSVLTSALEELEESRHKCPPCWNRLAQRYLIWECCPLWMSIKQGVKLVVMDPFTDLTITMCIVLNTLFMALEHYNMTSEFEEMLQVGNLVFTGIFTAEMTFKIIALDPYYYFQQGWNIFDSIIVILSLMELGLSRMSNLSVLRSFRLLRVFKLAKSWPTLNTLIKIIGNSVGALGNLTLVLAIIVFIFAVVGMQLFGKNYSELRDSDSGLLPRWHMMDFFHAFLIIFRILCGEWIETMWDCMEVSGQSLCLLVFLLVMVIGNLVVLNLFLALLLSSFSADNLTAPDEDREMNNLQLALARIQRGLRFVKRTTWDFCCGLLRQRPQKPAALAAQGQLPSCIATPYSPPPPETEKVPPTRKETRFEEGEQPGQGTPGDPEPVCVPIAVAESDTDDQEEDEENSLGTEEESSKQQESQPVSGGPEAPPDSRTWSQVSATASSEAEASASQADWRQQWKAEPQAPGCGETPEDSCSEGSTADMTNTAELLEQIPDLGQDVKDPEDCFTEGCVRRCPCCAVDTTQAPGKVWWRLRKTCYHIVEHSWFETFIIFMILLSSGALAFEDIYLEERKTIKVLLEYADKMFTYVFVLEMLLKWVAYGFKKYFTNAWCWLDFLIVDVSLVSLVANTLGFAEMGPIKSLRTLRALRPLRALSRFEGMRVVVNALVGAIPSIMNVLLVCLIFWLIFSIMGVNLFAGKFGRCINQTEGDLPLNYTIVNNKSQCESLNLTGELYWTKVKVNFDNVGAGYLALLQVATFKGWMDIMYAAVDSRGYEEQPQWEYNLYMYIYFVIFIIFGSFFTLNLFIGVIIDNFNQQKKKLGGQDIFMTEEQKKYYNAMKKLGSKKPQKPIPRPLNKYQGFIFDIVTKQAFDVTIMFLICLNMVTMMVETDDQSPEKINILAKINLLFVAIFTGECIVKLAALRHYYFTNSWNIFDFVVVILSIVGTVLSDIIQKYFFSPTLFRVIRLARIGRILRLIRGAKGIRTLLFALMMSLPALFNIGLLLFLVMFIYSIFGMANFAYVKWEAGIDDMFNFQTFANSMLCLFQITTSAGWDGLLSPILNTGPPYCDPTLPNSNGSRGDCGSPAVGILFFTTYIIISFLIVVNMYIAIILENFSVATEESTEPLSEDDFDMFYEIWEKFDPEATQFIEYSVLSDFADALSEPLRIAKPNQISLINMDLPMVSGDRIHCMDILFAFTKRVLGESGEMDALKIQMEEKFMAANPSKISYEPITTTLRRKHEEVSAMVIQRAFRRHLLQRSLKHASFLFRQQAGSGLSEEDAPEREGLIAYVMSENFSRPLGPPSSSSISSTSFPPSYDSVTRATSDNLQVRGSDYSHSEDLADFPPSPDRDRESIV

Structure (SMILES) | inhibition at 1 µM (human Nav1.1) [%] | inhibition at 1 µM (hNav1.2 sodium channel) [%] | inhibition at 1 µM [1] [%] | inhibition at 1 µM (hNav1.5 Peak INa; at 1 μM, 3 Hz stimulation, holding potential −100 mV, read-out: Peak UDB (use-dependent block of peak INa) % Inhibition) [%] | inhibition at 1 µM (hNav1.5 Peak INa; read-out: Peak TB (tonic block of peak INa) % Inhibition) [%]
Cc1cnc2n1CCOc1ccc(-c3ccc(C(F)(F)F)cc3)cc1-2 [Compound I-6, 3-methyl-10-(4-(trifluoromethyl)phenyl)-5,6-dihydrobenzo[f]imidazo[1,2-d][1,4]oxazepine] | -10 | -3 | 28 | – | –
Cc1c(Cl)nc2n1CCOc1ccc(-c3ccc(C(F)(F)F)cc3)cc1-2 [Compound I-14, 2-chloro-3-methyl-10-(4-(trifluoromethyl)phenyl)-5,6-dihydrobenzo[f]imidazo[1,2-d][1,4]oxazepine] | 0 | 4 | 11 | – | –
FC(F)(F)c1ccc(-c2ccc3c(c2)-c2ncc(Cl)n2CCO3)cc1 [Compound I-13, 3-chloro-10-(4-(trifluoromethyl)phenyl)-5,6-dihydrobenzo[f]imidazo[1,2-d][1,4]oxazepine] | -3 | 8 | 6 | – | –
FC(F)(F)c1ccc(-c2ccc3c(c2)-c2ncc(Br)n2CCO3)cc1 [Compound I-12, 3-bromo-10-(4-(trifluoromethyl)phenyl)-5,6-dihydrobenzo[f]imidazo[1,2-d][1,4]oxazepine] | -7 | 6 | 4 | – | –
CC(C)(O)c1cnc2n1CCOc1ccc(-c3ccc(C(F)(F)F)cc3)cc1-2 [Compound I-10, 2-(10-(4-(trifluoromethyl)phenyl)-5,6-dihydrobenzo[f]imidazo[1,2-d][1,4]oxazepin-3-yl)propan-2-ol] | -5 | 0 | 10 | – | –
FC(F)(F)c1ccc(-c2ccc3c(c2)-c2ncc(Cc4ccccc4)n2CCO3)cc1 [Compound I-11, 3-benzyl-10-(4-(trifluoromethyl)phenyl)-5,6-dihydrobenzo[f]imidazo[1,2-d][1,4]oxazepine] | -5 | -5 | 13 | – | –
FC(F)(F)c1ccc(-c2ccc3c(c2)-c2ncc(C4CC4)n2CCO3)cc1 [Compound I-9, 3-cyclopropyl-10-(4-(trifluoromethyl)phenyl)-5,6-dihydrobenzo[f]imidazo[1,2-d][1,4]oxazepine] | 4 | 0 | 4 | – | –
FC(F)(F)c1ccc(-c2ccc3c(c2)-c2nccn2CCO3)cc1 [Compound I-1, 10-(4-(trifluoromethyl)phenyl)-5,6-dihydrobenzo[f]imidazo[1,2-d][1,4]oxazepine] | -12 | 2 | 32 | – | –
FC(F)(F)c1ccc(-c2ccc3c(c2)C(NCCOc2ccccn2)=NCCO3)cc1 [II-20, N-(2-(pyridin-2-yloxy)ethyl)-7-(4-(trifluoromethyl)phenyl)-2,3-dihydrobenzo[f][1,4]oxazepin-5-amine] | – | – | 59 | 89 | 30
FC(F)(F)Oc1ccc(-c2ccc3c(c2)-c2nccn2CCO3)cc1 [Compound I-2, 10-(4-(trifluoromethoxy)phenyl)-5,6-dihydrobenzo[f]imidazo[1,2-d][1,4]oxazepine] | 1 | 18 | 31 | – | –

Reference: patent US9695192B2, “Fused heterocyclic compounds as ion channel modulators” (GILEAD SCIENCES, INC., priority 2011, dated 2017)
